Test results: paper PMC4359714 (Naunyn-Schmiedeberg's Archives of Pharmacology, 2015)

Tests used:
rats = assay: Open field activity; format: in vivo, rat; settings: 5.6 mg/kg i.p., 30 min before; p < 0.05 vs vehicle (14,484 ± 1686 cm)
Procedure: Rats were habituated in a reversed light cycle room in home cages for at least 1 week and acclimated to the testing room for 1 h prior to dosing. TRPM8 antagonist (10, 30, or 100 mg/kg) or vehicle (5 % Tween 80 in OraPlus®) was injected 2 h before placing an animal in the open-field apparatus. Open-field activity was measured using a system that counts interruptions of a set of photobeams for the course of 60 min (Kinder Scientific, Poway, CA). To begin a session, animals were removed from the home cage and placed individually into an independent Plexiglas box (41 cm L × 41 cm W × 38 cm H) surrounded by a frame consisting of 32 photocells (16Y and 16X) that track the movement of the animal. Photobeam breaks were used as an indication of activity and were measured as the following parameters per minute: basic movements (beam breaks), distance traveled (cm), time spent (s), and number of repetitive beam breaks (i.e., stereotypic movement). Chlordiazepoxide, which consistently elicits a decrease in open field activity, was used as a positive control. Chlordiazepoxide was formulated in saline at 5.6 mg/kg i.p. and dosed 30 min before the start of the open field assay.

[1] = system: cold hypersensitivity after CFA or peripheral nerve injury models; settings: ref Knowlton et al. [2011]; cited from earlier work
[2] = system: TRPM8-mediated icilin-induced wet-dog shakes in rats; assay: Icilin-induced wet-dog shake (WDS) model; format: in vivo, rat
Procedure: The TRPM8 antagonist (1, 3, or 10 mg/kg) or vehicle control (5 % Tween 80 in OraPlus®) was administered p.o. 90 min prior to administration of icilin (0.5 mg/kg, 1 ml/kg, i.p., 100 % PEG 400). […] Rats were viewed through transparent Plexiglas® observation cylinders that were placed on a custom, opaque, plastic apparatus such that one rat could not view another rat.
In vivo IC50 and IC90 estimates using WDS model data were determined by fitting a sigmoidal dose-response curve to individual animal number of WDS versus resulting plasma concentration. Behavioral and electrophysiological data are expressed as mean ± standard error of the mean (S.E.M.). Results were analyzed using one-way analysis of variance (ANOVA) with Dunnett’s multiple-comparisons post-hoc test for significance relative to vehicle. […] Actual gram values are plotted on a logarithmic scale Y-axis of the figures for convenience. Statistical calculations and graphs were made using GraphPad Prism 5.01 (GraphPad Software Inc, San Diego, CA). Percent responders to menthol stimulation in the ex vivo skin-nerve preparation were compared under vehicle and antagonist conditions through the use of Fisher’s exact test. Responses of C fibers to increasing mechanical forces under vehicle or antagonist conditions were compared using a two-way ANOVA with a Bonferonni post-hoc analysis.

SNL rats = assay: SNL-induced tactile allodynia (von Frey, up-down method); format: in vivo, rat; settings: 200 mg/kg p.o.; p < 0.05 vs vehicle (4.4 ± 1.2 g)
Procedure: SNL surgery was performed using aseptic surgical techniques and a stereomicroscope (Kim and Chung [1992]). Spinal nerve injury was caused by ligating the left L5 and L6 spinal nerves, with special care to avoid damage to the L4 spinal nerve or surrounding area. More specifically, under gaseous anesthesia with a mixture of O2 and isoflurane (3 % for induction and 2 % for maintenance), skin was excised and the longissimus lumborum muscle, part of articular processes (L4-S1), and the fascia above L6 spinal nerve were carefully removed. […]
Behavioral testing Two weeks post surgery, mechanical sensitivity was measured by determining the median 50 % foot withdrawal threshold for von Frey filaments using the up-down method (Chaplan et al. [1994]). […] To avoid possible reflex responses, only abrupt withdrawal of the foot accompanied by pain indicative behaviors (namely paw flinching, shaking, or licking for more than 2 s) was recorded as a response. […]
In vivo IC50 and IC90 estimates using WDS model data were determined by fitting a sigmoidal dose-response curve to individual animal number of WDS versus resulting plasma concentration. Behavioral and electrophysiological data are expressed as mean ± standard error of the mean (S.E.M.). Results were analyzed using one-way analysis of variance (ANOVA) with Dunnett’s multiple-comparisons post-hoc test for significance relative to vehicle. […]

SMILES: CNC1=Nc2ccc(Cl)cc2C(c2ccccc2)=[N+]([O-])C1 [chlordiazepoxide, Chlordiazepoxide, reference compound]
- total distance traveled, open field (positive control) (rats): 9423 ± 745 cm

SMILES: COc1cc(CN(CCN)C(=O)OC(C)c2ccccc2)ccc1OCc1ccccc1 (centres unmarked) [PBMC]
- effect on cold hypersensitivity after CFA or peripheral nerve injury [1]: attenuated cold hypersensitivity

SMILES: O=C1NC(c2cccc([N+](=O)[O-])c2)=CCN1c1ccccc1O [icilin, reference compound]
- ED80 for induction of wet-dog shakes ([2]; icilin i.p. 0.3, 0.5, 0.75, 1 mg/kg): less than 0.5 mg/kg
- ED90 for induction of wet-dog shakes ([2]; icilin i.p. 0.3–1.0 mg/kg dose-response, interval 0.28–0.75, data not shown): 0.46 mg/kg

SMILES: NCC1(CC(=O)O)CCCCC1 [gabapentin, reference compound]
- tactile threshold (von Frey), SNL model (positive control) (SNL rats): 12.4 ± 1.2 g
